This passage reports GI50 and TGI results from PubChem BioAssay (NCI).

Among the test systems are NCI/ADR-RES ovarian; MDA-MB-231 breast; HL-60(TB) leukemia; IGROV1 ovarian; UACC-257 melanoma; OVCAR-3 ovarian; A549 NSCLC; HOP-92 NSCLC; MALME-3M melanoma; SK-MEL-5 melanoma.
Holding throughout (assay): DTP human tumour cell line panel, 48 h

Structures are written as SMILES.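 96-well plates; 48 h exposure; 5 concentrations. Endpoints by linear interpolation between flanking doses. Not reached: highest tested concentration assigned. GI50: concentration for 50% inhibition of growth. TGI marks complete inhibition of growth.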 Some results are limits rather than exact numbers.

Consider `CC1=C(CO)C(=O)O[C@@H]([C@@H](C)[C@H]2CC[C@H]3[C@@H]4C[C@H]5O[C@]56[C@@H](O)C=CC(=O)[C@]6(C)[C@H]4CC[C@]23C)C1`, for which the figures for the GI50 with NCI/ADR-RES ovarian and in the test with MDA-MB-231 breast were 0.821 µM and 0.491 µM, respectively. The TGI (in general, the concentration at which net growth stops) is 11.2 µM with NCI/ADR-RES ovarian; 1.77 µM in the test with MDA-MB-231 breast; 0.821 µM with HL-60(TB) leukemia; 0.544 µM with IGROV1 ovarian; 2.32 µM in the test with UACC-257 melanoma; 0.792 µM in the test on OVCAR-3 ovarian. For the same compound, the TGI worked out at 3.96 µM in the test on A549 NSCLC, 1.46 µM with HOP-92 NSCLC, 0.826 µM in the test with MALME-3M melanoma and 2.79 µM in the test on SK-MEL-5 melanoma.
For the compound `N#C/C(=C/N1CCN(C(=O)c2ccco2)C1=S)C(=O)Nc1ccc(Cl)cc1`, the GI50 – broadly, the concentration giving 50% growth inhibition – is 28.1 µM with NCI/ADR-RES ovarian; 18.4 µM in the test on MDA-MB-231 breast; 10.5 µM in the test on HL-60(TB) leukemia; 25.3 µM with IGROV1 ovarian; 16.5 µM with UACC-257 melanoma; 15.5 µM in the test with OVCAR-3 ovarian. In addition, the GI50 is 25.8 µM in the test on A549 NSCLC, 21.5 µM in the test on HOP-92 NSCLC, 21.4 µM in the test with MALME-3M melanoma and 11.2 µM with SK-MEL-5 melanoma. Moreover, the concentration for total growth inhibition (TGI) with NCI/ADR-RES ovarian was > 50 µM; in the test with MDA-MB-231 breast, > 50 µM; with HL-60(TB) leukemia, 28.7 µM; with IGROV1 ovarian it was > 50 µM; in the test on UACC-257 melanoma it was 48.4 µM; with OVCAR-3 ovarian, > 50 µM. Moreover, the TGI is > 50 µM in the test on A549 NSCLC, > 50 µM with HOP-92 NSCLC, > 50 µM with MALME-3M melanoma and 24.7 µM with SK-MEL-5 melanoma.
`Cc1ccc(S(=O)(=O)n2cc([C@@]3(O)C[C@H](CSC#N)OC3=O)c3ccccc32)cc1`: the GI50 was 13.5 µM in the test on NCI/ADR-RES ovarian; 8.44 µM with MDA-MB-231 breast; 3.5 µM with HL-60(TB) leukemia; 7.54 µM with IGROV1 ovarian; 10.9 µM with UACC-257 melanoma; 8.81 µM with OVCAR-3 ovarian. For the same compound, the GI50 was 29.2 µM with A549 NSCLC, 23.9 µM with HOP-92 NSCLC, 12.1 µM in the test with MALME-3M melanoma and 2.44 µM in the test with SK-MEL-5 melanoma. Also, the TGI with NCI/ADR-RES ovarian turned out to be 38.8 µM; in the test on MDA-MB-231 breast it was 22.4 µM; in the test on HL-60(TB) leukemia, 12.2 µM; with IGROV1 ovarian, 22.4 µM; with UACC-257 melanoma it was 56.4 µM; with OVCAR-3 ovarian it was 21 µM. Besides, the TGI was > 100 µM in the test with A549 NSCLC, 71.3 µM with HOP-92 NSCLC, 35.2 µM in the test with MALME-3M melanoma and 19.8 µM in the test on SK-MEL-5 melanoma.
In the case of `CN1CCN(Cc2ccc(NC(=O)c3[nH]ncc3Nc3ncnc4[nH]ccc34)cc2)CC1`, the GI50 in the test with NCI/ADR-RES ovarian is 7.16 µM; in the test with MDA-MB-231 breast, 0.371 µM; in the test on HL-60(TB) leukemia, 0.27 µM; in the test on IGROV1 ovarian it was 0.436 µM; in the test on UACC-257 melanoma, 0.531 µM; in the test on OVCAR-3 ovarian, 0.255 µM. Moreover, the GI50 with A549 NSCLC is 0.742 µM; with HOP-92 NSCLC, 0.431 µM; in the test with MALME-3M melanoma, 0.472 µM; in the test with SK-MEL-5 melanoma, 0.25 µM. For the same compound, the total growth inhibition concentration (TGI) was > 100 µM with NCI/ADR-RES ovarian; 0.941 µM with MDA-MB-231 breast; 0.626 µM in the test on HL-60(TB) leukemia; 10.7 µM with IGROV1 ovarian; 17.8 µM with UACC-257 melanoma; 0.797 µM with OVCAR-3 ovarian. Further, the TGI in the test with A549 NSCLC worked out at 10.8 µM; in the test on HOP-92 NSCLC, 0.741 µM; in the test on MALME-3M melanoma, 0.959 µM; with SK-MEL-5 melanoma it was 0.778 µM.
As to `COc1c(OC)c(OC)c2c(=O)cc(-c3ccc(OC(C)C)cc3)oc2c1OC`, the TGI was 61.6 µM in the test with NCI/ADR-RES ovarian; > 54.2 µM in the test with MDA-MB-231 breast; 13 µM in the test with HL-60(TB) leukemia; > 56.8 µM with IGROV1 ovarian; > 58.9 µM with UACC-257 melanoma; 44.6 µM in the test on OVCAR-3 ovarian. For the same compound, the TGI in the test with A549 NSCLC is > 51.1 µM; in the test on HOP-92 NSCLC, 23.4 µM; in the test with MALME-3M melanoma it was > 50.3 µM; in the test on SK-MEL-5 melanoma it was 25.5 µM.
Consider `FC(F)c1ncc(-c2ccc(C(F)(F)F)cc2)c(NC2CCCCCC2)n1`, for which the GI50 in the test with NCI/ADR-RES ovarian, with MDA-MB-231 breast, in the test with HL-60(TB) leukemia, in the test with IGROV1 ovarian, with UACC-257 melanoma and in the test on OVCAR-3 ovarian was > 10 µM each time. In addition, the GI50 with A549 NSCLC, with HOP-92 NSCLC, in the test with MALME-3M melanoma and in the test with SK-MEL-5 melanoma was > 10 µM each time. For the same compound, the TGI with NCI/ADR-RES ovarian, in the test with MDA-MB-231 breast, in the test with HL-60(TB) leukemia, in the test on IGROV1 ovarian, in the test with UACC-257 melanoma and in the test with OVCAR-3 ovarian was > 10 µM throughout. Further, the concentration for total growth inhibition (TGI) with A549 NSCLC, in the test on HOP-92 NSCLC, with MALME-3M melanoma and in the test on SK-MEL-5 melanoma was > 10 µM in each case.
With `CN(C)CCN1C(=O)c2cccc3c(/C=C/CN4C(=O)c5cccc6cccc(c56)C4=O)ccc(c23)C1=O`, the GI50 in the test on NCI/ADR-RES ovarian was > 100 µM; in the test with MDA-MB-231 breast, 35.9 µM; in the test on HL-60(TB) leukemia it was > 100 µM; with IGROV1 ovarian, > 100 µM; in the test on UACC-257 melanoma, > 100 µM; with OVCAR-3 ovarian, > 100 µM. The GI50 is > 100 µM in the test on A549 NSCLC, 3.67 µM in the test with HOP-92 NSCLC, 4.06 µM in the test with MALME-3M melanoma and > 100 µM in the test on SK-MEL-5 melanoma. Further, the TGI in the test with NCI/ADR-RES ovarian, in the test with MDA-MB-231 breast, in the test on HL-60(TB) leukemia, in the test on IGROV1 ovarian, in the test with UACC-257 melanoma and in the test with OVCAR-3 ovarian was > 100 µM in each case. Besides, the TGI in the test on A549 NSCLC is > 100 µM; in the test on HOP-92 NSCLC it was 20.1 µM; in the test on MALME-3M melanoma, 30.5 µM; with SK-MEL-5 melanoma, > 100 µM.
In the case of `Nc1nc(Cl)nc2c1ncn2C1OC(CO)C(O)C1F` (configuration not stated), the 50% growth inhibitory concentration (GI50) with NCI/ADR-RES ovarian is < 0.0166 µM; in the test with MDA-MB-231 breast it was 4.93 µM; in the test with HL-60(TB) leukemia, 0.308 µM; with IGROV1 ovarian, > 18 µM; in the test on UACC-257 melanoma, 4.17 µM; with OVCAR-3 ovarian it was > 100 µM. Also, the GI50 with A549 NSCLC was 0.144 µM; in the test on HOP-92 NSCLC it was 0.124 µM; with MALME-3M melanoma, 0.195 µM; with SK-MEL-5 melanoma it was 0.168 µM. Also, the TGI in the test on NCI/ADR-RES ovarian was 4.98 µM; in the test with MDA-MB-231 breast, > 26.5 µM; in the test with HL-60(TB) leukemia, > 100 µM; with IGROV1 ovarian it was > 100 µM; in the test with UACC-257 melanoma it was > 100 µM; in the test with OVCAR-3 ovarian it was > 100 µM. Besides, the TGI in the test with A549 NSCLC was > 100 µM; in the test on HOP-92 NSCLC, > 68 µM; in the test with MALME-3M melanoma, > 46.2 µM; with SK-MEL-5 melanoma, > 8.7 µM.
Turning to `Fc1ccc2c(c1)C1=C(CCC2)C(c2ccc(Cl)cc2)NC(=S)N1` (configuration not stated), the GI50 in the test on NCI/ADR-RES ovarian was 61.6 µM; in the test with MDA-MB-231 breast, 24.2 µM; with HL-60(TB) leukemia, 7.51 µM; in the test with IGROV1 ovarian, 10.3 µM; with UACC-257 melanoma, 21.5 µM; in the test on OVCAR-3 ovarian it was 27.8 µM. Also, the GI50 with A549 NSCLC is 20.7 µM; in the test with HOP-92 NSCLC it was 16.7 µM; in the test with MALME-3M melanoma, 22.6 µM; in the test with SK-MEL-5 melanoma, 28.4 µM. For the same compound, the TGI is > 100 µM with NCI/ADR-RES ovarian; > 100 µM in the test with MDA-MB-231 breast; > 100 µM in the test with HL-60(TB) leukemia; > 100 µM in the test with IGROV1 ovarian; 70 µM in the test with UACC-257 melanoma; > 100 µM in the test on OVCAR-3 ovarian. Also, the TGI with A549 NSCLC is > 100 µM; in the test on HOP-92 NSCLC, 73.9 µM; in the test on MALME-3M melanoma, 80.2 µM; in the test on SK-MEL-5 melanoma, > 100 µM.
Consider `N#CC1=C(N)NC(N2CCOCC2)=NC12Nc1ccccc1O2` (configuration not stated), for which the GI50 was 34.2 µM with NCI/ADR-RES ovarian; 89.9 µM with MDA-MB-231 breast; 48.3 µM in the test with HL-60(TB) leukemia; 9.47 µM with IGROV1 ovarian; 49.7 µM with UACC-257 melanoma; 25.1 µM in the test with OVCAR-3 ovarian. In addition, the GI50 with A549 NSCLC is 70 µM; in the test on HOP-92 NSCLC, > 100 µM; with MALME-3M melanoma it was > 100 µM; in the test on SK-MEL-5 melanoma it was 22.7 µM. Also, the TGI in the test on NCI/ADR-RES ovarian is > 100 µM; with MDA-MB-231 breast, > 100 µM; with HL-60(TB) leukemia, > 100 µM; in the test with IGROV1 ovarian it was 57.5 µM; with UACC-257 melanoma, > 100 µM; with OVCAR-3 ovarian, 84.8 µM. Moreover, the TGI in the test with A549 NSCLC, in the test with HOP-92 NSCLC, with MALME-3M melanoma and in the test on SK-MEL-5 melanoma was > 100 µM throughout.
On to `O=C1NC(=O)C(c2cccc(Cl)c2)=C1Nc1ccc(Cl)c(C(=O)O)c1`, for which the GI50 in the test with NCI/ADR-RES ovarian, in the test on MDA-MB-231 breast, in the test on HL-60(TB) leukemia, in the test on IGROV1 ovarian, in the test on UACC-257 melanoma and in the test on OVCAR-3 ovarian was > 25 µM each time. The GI50 with A549 NSCLC, with HOP-92 NSCLC, in the test with MALME-3M melanoma and in the test with SK-MEL-5 melanoma was > 25 µM in each case. Besides, the TGI with NCI/ADR-RES ovarian, in the test with MDA-MB-231 breast, in the test with HL-60(TB) leukemia, in the test on IGROV1 ovarian, in the test on UACC-257 melanoma and in the test with OVCAR-3 ovarian was > 25 µM in each case. The TGI in the test on A549 NSCLC, in the test on HOP-92 NSCLC, in the test on MALME-3M melanoma and in the test with SK-MEL-5 melanoma was > 25 µM each time.
